# Measured values: patent publication US8399465B2, “Compounds with two fused bicyclic heteroaryl moieties as modulators of leukotriene A4 hydrolase” (Janssen Pharmaceutica NV, priority 2009, dated 2013)
# Legend:
# [1] = tested on: LTB4 production in murine blood (LTA4H); test: LTB4 production by calcium ionophore-stimulated murine blood for LTA4H inhibitor activity; type: cell-based, CD-1 mice; settings: Mus musculus; murine blood diluted 1 in 15, A23187 stimulated; single determination or average; mark after value = form tested: ′ free base, ″ hydrochloride, ^ formate; read-out: IC50
# Method in brief: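 LTB4 was measured by ELISA in supernatants after calcium ionophore A23187 stimulation (final 7 μg/mL, 30 min, 37° C) of CD-1 mouse blood collected on heparin. Compound was preincubated with the blood for 15 min beforehand. Values come from one determination or average several.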
# [2] = tested on: ex vivo calcium ionophore-stimulated LTB4 production in whole blood; test: Murine arachidonic acid-induced inflammation model: ex vivo stimulated LTB4 production in blood; set-up: species or system Balb/c mice; settings: Mus musculus; 30 mg/kg oral gavage; blood diluted 1:1, A23187 stimulated ex vivo; percent inhibition of LTB4 production; read-out: % Inh. LTB4
# Description: (§1) Assay 3: Murine Arachidonic Acid-Induced Inflammation Model
# (§2) LTA4H inhibitor compounds of the present invention were dissolved in 20% cyclodextran/H2O at a concentration of 3 mg/mL. The solutions were administered by oral gavage to female Balb/c mice weighing approximately 20 grams each (0.2 mL per mouse, 30 mg of LTA4H inhibitor compound per kg). Sixty minutes after being administered an LTA4 inhibitor, each mouse received topical application of 20 μL of arachidonic acid (100 mg/mL in acetone) to the left ear and 20 μL of acetone only to the right ear. After 3 h, the mice were sacrificed, blood was withdrawn in heparinized syringes, and 8 mm ear biopsies were taken. Ear biopsies were weighed to determine edema and then frozen at −80° C. until needed for determination of neutrophil influx.
# The microtiter plate contents were incubated for 30 min at 37° C. in a humidified incubator. The reaction was terminated by centrifugation (833×g, 10 min at 4° C.). Supernatants were analyzed for LTB4 by a commercially available enzyme-linked immunoassay (Cayman Chemical Co.) in accordance with the manufacturer's instructions. The percent inhibition of ex vivo stimulated LTB4 production (% Inh. LTB4) was determined by comparison to animals treated identically except that the solution administered by oral gavage was devoid of inhibitor compound.
# [3] = target: T1, recombinant human LTA4 hydrolase (rhLTA4H) (Homo sapiens, UniProt P09960); test: Recombinant human LTA4 hydrolase assay for LTA4 hydrolase inhibitor activity; type: biochemical; settings: rhLTA4H, LTB4 by immunoassay; single determination or average of two or more; mark after value = form tested: ′ free base, ″ hydrochloride, ^ formate; read-out: IC50
# T1 construct: made in house; host or cells: Spodoptera frugiperda (Sf-9) cells, baculovirus (pFastBac1)
# T1 sequence (P09960 1-611): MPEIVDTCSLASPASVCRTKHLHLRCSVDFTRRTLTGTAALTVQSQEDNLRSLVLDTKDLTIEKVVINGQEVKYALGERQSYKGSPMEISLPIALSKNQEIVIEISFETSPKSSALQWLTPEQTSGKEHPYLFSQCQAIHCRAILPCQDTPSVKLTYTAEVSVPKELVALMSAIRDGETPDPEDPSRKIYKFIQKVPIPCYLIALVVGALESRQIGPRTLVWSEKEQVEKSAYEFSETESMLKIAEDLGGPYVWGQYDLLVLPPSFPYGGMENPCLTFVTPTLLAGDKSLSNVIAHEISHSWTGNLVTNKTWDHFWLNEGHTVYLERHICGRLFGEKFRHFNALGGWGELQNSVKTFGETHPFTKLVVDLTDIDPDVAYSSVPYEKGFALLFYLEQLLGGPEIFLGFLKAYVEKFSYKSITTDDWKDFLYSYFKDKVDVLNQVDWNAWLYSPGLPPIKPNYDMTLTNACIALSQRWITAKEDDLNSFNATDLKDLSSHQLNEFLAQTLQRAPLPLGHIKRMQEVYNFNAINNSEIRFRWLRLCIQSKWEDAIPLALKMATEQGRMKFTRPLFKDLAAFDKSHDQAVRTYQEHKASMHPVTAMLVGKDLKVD
# Method in brief: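 LTB4 formation, measured by enzyme immunoassay, was the read-out. The enzyme, recombinant human LTA4H expressed in Sf-9 insect cells (10 ng per reaction), was exposed to compound for 10 min at room temperature before hydrolysed-ester LTA4 substrate was added for 30 min. Enzyme-free negatives were included.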
# [4] = tested on: arachidonic acid-induced neutrophil influx in murine ear tissue; test: Murine arachidonic acid-induced inflammation model: neutrophil influx (myeloperoxidase) in ear; type: in vivo, Balb/c mice; settings: Mus musculus; 30 mg/kg oral gavage, 60 min before topical arachidonic acid, ear biopsy after 3 h; percent inhibition of neutrophil influx; read-out: % Inh. MPO
# Description: as §1, §2
# Neutrophil influx was quantified by measuring the activity of myeloperoxidase (MPO), a neutrophil-specific enzyme. […] Debris was removed by centrifugation at 14000×g for 10 min. […] The microtiter plate contents were held at room temperature until the sample with the highest concentration of MPO reached an absorbance value of 0.4 at 650 nm. The reaction was stopped by addition of 50 μL 1 M H2SO4 to each sample well, and the myeloperoxidase activity in each sample was determined from the absorbance at […]. The background value from the right ear, treated only with acetone, was subtracted from that for the left ear, treated with arachidonic acid in acetone, for each animal. The percent inhibition of neutrophil influx (% Inh. MPO) by compounds of the invention was determined by comparison to animals treated identically, except that the solution administered by oral gavage was devoid of inhibitor compound. All compounds were assayed in their free base form.
structure (smiles),measurement,setting,value
"c1cnc2nc(Oc3ccc4c(CN5C[C@@H]6C[C@H]5CO6)coc4c3)sc2c1 [Example 158, (1S,4S)-2-[3-(2-Oxa-5-aza-bicyclo[2.2.1]hept-5-ylmethyl)-benzofuran-6-yloxy]-thiazolo[4,5-b]pyridine]",IC50,[1],32 nM
same,inhibition at 30 mg/kg,[2],95%
same,IC50,[3],6 nM
same,inhibition at 30 mg/kg,[4],87%
"C[C@H]1COCCN1Cc1coc2cc(Oc3nc4ncccc4s3)ccc12 [Example 159, (S)-2-[3-(3-Methyl-morpholin-4-ylmethyl)-benzofuran-6-yloxy]-thiazolo[4,5-b]pyridine]",IC50,[1],79 nM
same,inhibition at 30 mg/kg,[2],83%
same,IC50,[3],16 nM
same,inhibition at 30 mg/kg,[4],78%
"NC(=O)N1C[C@H]2C[C@@H]1CN2Cc1coc2cc(Oc3nc4ncccc4s3)ccc12 [Example 160, (1R,4R)-5-[6-(Thiazolo[4,5-b]pyridin-2-yloxy)-benzofuran-3-ylmethyl]-2,5-diaza-bicyclo[2.2.1]heptane-2-carboxylic acid amide]",IC50,[1],49 nM
same,inhibition at 30 mg/kg,[2],90%
same,IC50,[3],5 nM
same,inhibition at 30 mg/kg,[4],77%
"CC(=O)NCC1CCN(Cc2coc3cc(Oc4nc5ncccc5s4)ccc23)CC1 [Example 162, N-{1-[6-(Thiazolo[4,5-b]pyridin-2-yloxy)-benzofuran-3-ylmethyl]-piperidin-4-ylmethyl}-acetamide]",IC50,[1],26 nM
same,inhibition at 30 mg/kg,[2],90%
same,IC50,[3],1 nM
same,inhibition at 30 mg/kg,[4],87%
"CC(=O)N1CCC2(CCN(Cc3cc4cc(Oc5nc6ncccc6s5)ccc4o3)CC2)CC1 [Example 167, 1-{9-[5-(Thiazolo[4,5-b]pyridin-2-yloxy)-benzofuran-2-ylmethyl]-3,9-diaza-spiro[5.5]undec-3-yl}-ethanone]",IC50,[1],220 nM
same,inhibition at 30 mg/kg,[2],78%
same,IC50,[3],88 nM
same,inhibition at 30 mg/kg,[4],77%
"CC(=O)N1C[C@@H]2C[C@H]1CN2Cc1cc2ccc(Oc3nc4ncccc4s3)cc2o1 [Example 168, (1S,4S)-1-{5-[6-(Thiazolo[4,5-b]pyridin-2-yloxy)-benzofuran-2-ylmethyl]-2,5-diaza-bicyclo[2.2.1]hept-2-yl}-ethanone]",IC50,[1],210 nM
same,inhibition at 30 mg/kg,[2],70%
same,IC50,[3],36 nM
same,inhibition at 30 mg/kg,[4],74%
"CC(=O)N1C[C@@H]2CC[C@H]1CN2Cc1cc2cc(Oc3nc4ncccc4s3)ccc2o1 [Example 169, meso-1-{5-[5-(Thiazolo[4,5-b]pyridin-2-yloxy)-benzofuran-2-ylmethyl]-2,5-diaza-bicyclo[2.2.2]oct-2-yl}-ethanone]",IC50,[1],23 nM
same,inhibition at 30 mg/kg,[2],85%
same,IC50,[3],3 nM
same,inhibition at 30 mg/kg,[4],92%
"CC(=O)N1C[C@@H]2CC[C@H]1CN2Cc1cc2ccc(Oc3nc4ncccc4s3)cc2o1 [Example 170, meso-1-{5-[6-(Thiazolo[4,5-b]pyridin-2-yloxy)-benzofuran-2-ylmethyl]-2,5-diaza-bicyclo[2.2.2]oct-2-yl}-ethanone]",IC50,[1],80 nM
same,inhibition at 30 mg/kg,[2],76%
same,IC50,[3],5 nM
same,inhibition at 30 mg/kg,[4],70%
"CN(Cc1ccncc1)Cc1coc2cc(Oc3nc4ncccc4s3)ccc12 [Example 177, Methyl-pyridin-4-ylmethyl-[6-(thiazolo[4,5-b]pyridin-2-yloxy)-benzofuran-3-ylmethyl]-amine]",IC50,[1],110 nM
same,inhibition at 30 mg/kg,[2],70%
same,IC50,[3],13 nM
same,inhibition at 30 mg/kg,[4],12%
"CC(=O)N1CCCN(Cc2coc3cc(Oc4nc5ncccc5s4)ccc23)CC1 [Example 182, 1-{4-[6-(Thiazolo[4,5-b]pyridin-2-yloxy)-benzofuran-3-ylmethyl]-[1,4]diazepan-1-yl}-ethanone]",IC50,[1],39 nM
same,inhibition at 30 mg/kg,[2],85%
same,IC50,[3],9 nM
same,inhibition at 30 mg/kg,[4],67%
"CS(=O)(=O)C1CCN(Cc2coc3cc(Oc4nc5ncccc5s4)ccc23)CC1 [Example 183, 2-[3-(4-Methanesulfonyl-piperidin-1-ylmethyl)-benzofuran-6-yloxy]-thiazolo[4,5-b]pyridine]",IC50,[1],57 nM
same,inhibition at 30 mg/kg,[2],83%
same,IC50,[3],6 nM
same,inhibition at 30 mg/kg,[4],85%
